# Assay results reported in patent publication US20250074871A1, “PHENETHYLAMINES AND METHODS OF PREPARATION THEREOF” (priority 2022, published 2025).
# Like-named read-outs stand apart in the source and are kept apart here.
# Columns and labels:
# Type in all cases: cell-based
# 5-HT2A receptor = biological target: T1, 5-HT2A receptor (Homo sapiens, UniProt P28223); assay: 5-HT2A Gq dissociation BRET functional assay; details: Table 2; for 5-HT2A BRET Eff %: normalized to % 5-HT stimulation; for EC50: at least three replicate trials
# T1 construct: expressed in transfected cells; host or cells: HEK293T
# 5-HT2B receptor = biological target: T2, 5-HT2B receptor (Homo sapiens, UniProt P41595); assay: 5-HT2B Gq dissociation BRET functional assay; details: Table 2; for EC50: at least three replicate trials; for 5-HT2B BRET Eff %: normalized to % 5-HT stimulation
# T2 construct: expressed in transfected cells; host or cells: HEK293T
# 5-HT2C receptor = biological target: T3, 5-HT2C receptor (Homo sapiens, UniProt P28335); assay: cell-based; details: Table 2; for EC50: at least three replicate trials, read-out: 5-HT2C BRET EC50; for 5-HT2C BRET Eff %: normalized to % 5-HT stimulation
# T3 construct: expressed in transfected cells; host or cells: HEK293T
# T3 sequence (P28335 33-458): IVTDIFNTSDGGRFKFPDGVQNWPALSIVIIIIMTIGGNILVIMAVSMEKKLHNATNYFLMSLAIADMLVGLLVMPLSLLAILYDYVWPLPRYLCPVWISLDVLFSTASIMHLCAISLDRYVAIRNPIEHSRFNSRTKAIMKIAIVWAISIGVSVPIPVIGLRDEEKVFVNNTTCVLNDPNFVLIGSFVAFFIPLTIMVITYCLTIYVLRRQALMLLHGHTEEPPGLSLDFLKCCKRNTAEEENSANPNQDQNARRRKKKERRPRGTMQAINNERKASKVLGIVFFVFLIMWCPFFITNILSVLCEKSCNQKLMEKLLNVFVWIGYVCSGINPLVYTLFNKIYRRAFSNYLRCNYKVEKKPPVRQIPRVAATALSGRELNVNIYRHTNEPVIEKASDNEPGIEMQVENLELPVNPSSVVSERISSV
# T1 sequence (P28223 whole entry): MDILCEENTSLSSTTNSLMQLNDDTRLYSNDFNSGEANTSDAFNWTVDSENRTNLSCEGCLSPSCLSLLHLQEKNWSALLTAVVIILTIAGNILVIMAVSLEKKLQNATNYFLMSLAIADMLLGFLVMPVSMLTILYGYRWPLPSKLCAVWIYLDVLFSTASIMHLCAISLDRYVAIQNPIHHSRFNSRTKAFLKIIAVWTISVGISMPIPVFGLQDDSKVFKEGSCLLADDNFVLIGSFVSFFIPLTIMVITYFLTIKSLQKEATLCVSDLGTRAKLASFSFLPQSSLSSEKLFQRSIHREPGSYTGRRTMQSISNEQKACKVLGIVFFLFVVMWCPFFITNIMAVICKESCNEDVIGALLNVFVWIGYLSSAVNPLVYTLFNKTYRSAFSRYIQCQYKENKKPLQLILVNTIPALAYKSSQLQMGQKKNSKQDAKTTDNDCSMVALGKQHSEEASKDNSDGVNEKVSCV
# T2 sequence (P41595 whole entry): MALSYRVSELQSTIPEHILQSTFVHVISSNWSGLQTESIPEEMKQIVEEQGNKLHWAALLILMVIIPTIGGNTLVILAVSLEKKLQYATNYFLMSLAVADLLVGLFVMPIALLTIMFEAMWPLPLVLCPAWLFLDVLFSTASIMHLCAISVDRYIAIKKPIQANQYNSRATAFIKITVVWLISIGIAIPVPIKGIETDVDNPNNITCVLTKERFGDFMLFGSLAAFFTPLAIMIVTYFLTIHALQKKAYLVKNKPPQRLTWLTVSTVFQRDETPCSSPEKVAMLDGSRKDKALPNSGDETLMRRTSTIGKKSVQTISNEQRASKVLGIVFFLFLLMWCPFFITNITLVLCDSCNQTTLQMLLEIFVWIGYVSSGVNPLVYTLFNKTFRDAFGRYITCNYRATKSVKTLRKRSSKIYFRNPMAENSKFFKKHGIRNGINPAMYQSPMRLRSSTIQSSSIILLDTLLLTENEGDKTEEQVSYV
SMILES,5-HT2A BRET Eff % (5-HT2A receptor) [%],EC50 (5-HT2B receptor; 5-HT2B BRET EC50 (nM)) [nM],5-HT2B BRET Eff % (5-HT2B receptor) [%],EC50 (5-HT2C receptor) [nM],5-HT2C BRET Eff % (5-HT2C receptor) [%],EC50 (5-HT2A receptor; 5-HT2A BRET EC50 (nM)) [nM],5-HT2B BRET EC50 (nM) / Eff % (5-HT2B receptor),EC50 (5-HT2A receptor; read-out: 5-HT2A BRET EC50) [nM],EC50 (5-HT2B receptor; read-out: 5-HT2B BRET EC50) [nM],"5-HT2C BRET EC50 (nM) / Eff % (merged cell, word) (5-HT2C receptor)"
"NCCc1c[nH]c2ccc(O)cc12 [5-hydroxytryptamine (serotonin), 5-hydroxytryptamine, reference compound]",100,–,–,–,–,–,–,–,–,–
COc1cc(C#N)c(F)cc1CCNCc1ccccc1O [Cpd #4],99,4090,73,37.5,115,2.4,–,–,–,–
COc1cc(C#N)ccc1CCNCc1ccccc1F [Cpd #6],81,–,–,2120,130,381,Inactive,–,–,–
COc1cc(C#N)ccc1CCNCc1cccc(F)c1 [Cpd #7],84,–,–,800,126,133,Inactive,–,–,–
COc1cc(C#N)ccc1CCNCc1ccc(F)cc1 [Cpd #8],52,–,–,8740,79,13100,Inactive,–,–,–
COc1cc(C#N)ccc1CCNCc1cccc(Cl)c1 [Cpd #13],69,–,–,1840,96,393,Inactive,–,–,–
COc1cc(C#N)ccc1CCNCc1ccc(Cl)cc1 [Cpd #14],40,–,–,13300,74,14300,Inactive,–,–,–
COc1ccc(CNCCc2ccc(C#N)cc2OC)cc1 [Cpd #29],59,–,–,924,75,3950,Inactive,–,–,–
COc1cc(C#N)ccc1CCNC1COc2ccccc21 (centres unmarked) [Cpd #52],69,–,–,12100,125,–,Inactive,1040,–,–
COc1cc(C#N)ccc1CCNCc1c(Cl)cccc1Cl [Cpd #58],79,–,–,2170,85,496,Inactive,–,–,–
COc1cc(C#N)ccc1CCNCc1ccc(F)cc1F [Cpd #59],58,–,–,9930,94,14100,Inactive,–,–,–
N#Cc1ccc(CCNCc2cccc3ccsc23)c(O)c1 [Cpd #70],11,–,–,5400,160,–,Inactive,0.3,–,–
N#Cc1ccc(CCNCc2cccc3cc[nH]c23)c(O)c1 [Cpd #71],59,–,–,10700,92,–,Inactive,1140,–,–
COc1cc(C#N)ccc1CCNCc1cccc2ncn(C)c12 [Cpd #73],4,–,–,0.04,7,–,Inactive,73,–,–
COc1cc(C#N)ccc1CCN(C)Cc1ccccc1Cl [Cpd #88],14,4980,20,310000,86,0.01,–,–,–,–
"COc1ccc(CCNCc2ccccc2O)c(OC)c1 [Cpd #96, reference compound]",95,–,–,7.2,109,2.3,Inactive,–,–,–
COc1cc(-c2cnoc2)ccc1CCNCc1ccccc1Cl [Cpd #101],65,–,–,9520,116,–,Inactive,270,–,–
COc1cc(-c2ncco2)ccc1CCNCc1ccccc1Cl [Cpd #102],61,–,143,1640,101,–,–,2090,5370,–
COc1cc(-c2ncccn2)ccc1CCNCc1ccccc1Cl [Cpd #104],71,–,–,5690,106,–,Inactive,4890,–,–
COc1cc(-c2cncnc2)ccc1CCNCc1ccccc1Cl [Cpd #105],86,–,–,1490,107,–,Inactive,1610,–,–

SMILES,5-HT2A BRET Eff % (5-HT2A receptor) [%],EC50 (5-HT2B receptor; 5-HT2B BRET EC50 (nM)) [nM],5-HT2B BRET Eff % (5-HT2B receptor) [%],EC50 (5-HT2C receptor) [nM],5-HT2C BRET Eff % (5-HT2C receptor) [%],EC50 (5-HT2A receptor; 5-HT2A BRET EC50 (nM)) [nM],5-HT2B BRET EC50 (nM) / Eff % (5-HT2B receptor),EC50 (5-HT2A receptor; read-out: 5-HT2A BRET EC50) [nM],EC50 (5-HT2B receptor; read-out: 5-HT2B BRET EC50) [nM],"5-HT2C BRET EC50 (nM) / Eff % (merged cell, word) (5-HT2C receptor)"
COc1cc(C#N)ccc1CCNCc1ccccc1O [Cpd #113],90,1290,34,30.3,102,4.9,–,–,–,–
N#Cc1ccc(CCNCc2ccccc2O)cc1 [Cpd #114],88,–,11,322,92,–,–,154,6490,–
N#Cc1ccc(CCNCc2ccccc2O)c(OC(F)(F)F)c1 [Cpd #115],94,–,–,380,104,212,Inactive,–,–,–
Oc1cc(C(F)(F)F)ccc1CCNCc1ccccc1O [Cpd #116],89,–,–,1.7,100,1,Inactive,–,–,–
COc1ccc(CCNCc2ccccc2SC)c(O)c1 [Cpd #119],100,2540,108,114,119,4.6,–,–,–,–
CSc1ccccc1CNCCc1ccc(O)cc1O [Cpd #120],90,–,–,–,–,–,Inactive,518,–,Inactive
CSc1ccc(CCNCc2ccccc2SC)c(O)c1 [Cpd #121],94,175,89,44.1,110,3.6,–,–,–,–
CSc1ccccc1CNCCc1ccc(C(F)F)cc1O [Cpd #123],96,6720,95,30,120,3.2,–,–,–,–
N#Cc1ccc(CCNCc2ccccc2OC(F)(F)F)c(O)c1 [Cpd #124],83,–,97,21.1,98,–,–,159,453,–
CCCCCc1ccc(CCNCc2ccccc2O)c(OC)c1 [Cpd #125],96,–,–,55.8,105,13.5,Inactive,–,–,–
COc1cc(Cc2ccccc2)ccc1CCNCc1ccccc1O [Cpd #126],99,–,−23,3.8,111,–,–,1.2,0.02,–
COc1cc(Oc2ccccc2)ccc1CCNCc1ccccc1O [Cpd #127],100,–,−20,148,104,–,–,27.1,3.8,–
COc1cc(C#N)c(F)cc1CCNCc1ccccc1SC [Cpd #128],99,723,109,114,118,7.8,–,–,–,–
N#Cc1cc(O)c(CCNCc2ccccc2O)cc1F [Cpd #129],95,249,62,67,105,7.8,–,–,–,–
COc1ccccc1CNCCc1ccc(F)cc1O [Cpd #130],84,–,–,8.7,101,18,Inactive,–,–,–
Cc1ccc(CCNCc2cccc3c2OCO3)c(O)c1 [Cpd #132],70,–,–,770,84,49,Inactive,–,–,–
COc1cc(C#N)ccc1CCNCC1CC1 [Cpd #133],64,–,−6,34400,71,–,–,10700,0.07,–
CSc1ccccc1CCNCCc1ccc(C#N)cc1O [Cpd #134],67,–,85,160,87,–,–,384,620,–
CSc1ccccc1CCCNCCc1ccc(C#N)cc1O [Cpd #135],51,–,15,121,65,–,–,423,502,–
CSc1ccccc1CNCCCc1ccc(C#N)cc1O [Cpd #136],55,–,49,412,43,–,–,1380,7330,–
